Results reported in patent US20210230213A1, “ARAMCHOL SALTS” (GALMED RESEARCH AND DEVELOPMENT LTD., priority 2013, published 2021).
Where two headings read alike, the source gives them in different places.

Key:
[1] = Mathematical extrapolation of dog data to humans for meglumine salt
[2] = Fill weight of size 00 HPMC capsule; format: physicochemical; details: hard HPMC capsule size 00, filled as is without tapping
Description: Aramchol (free acid), and the three salts were filled as are, into hard HPMC (Hypromellose; Capsule size 00 (CapsCanada, ON, Canada) without taping, fill weight is presented in table 9.

[3] = humans, prediction using % CV 24.3

With “3β-arachidylamido-7α,12α-dihydroxy-5β-cholan-24-oic acid N-methylglucamine salt” the AUCss [1] was 144,295 ng*h/mL, the AUCss ([1]; embodiment, b22 and b98 say the value pertains to dogs) was 144,295 ng*h/mL and the maximum plasma exposure [1, 3] was 179.382 µg·h/mL. For the same substance, the minimum plasma exposure [1, 3] was 109.208 µg·h/mL and the “fill weight of one 00 size capsule” value [2] was 0.30 gram.
